Results reported in patent publication US7446199B2, “Compositions useful as inhibitors of protein kinases” (Vertex Pharmaceuticals Incorporated, priority 2003, dated 2008).

Experiments:
c-Met = c-Met (Homo sapiens, UniProt P08581); test: Ki determination for the inhibition of c-Met, coupled enzyme system; type: biochemical; settings: 200 μM ATP, 10 μM polyGluTyr, 80 nM c-Met, 30° C.
How it was run: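 Coupled pyruvate kinase/lactate dehydrogenase NADH assay with 80 nM c-Met, 200 μM ATP, 10 μM polyGluTyr in pH 7.5 HEPES, 1.5% DMSO at 30° C. Compound (0.006–12.5 μM final, 12-point) preincubated 10 min; ATP started reaction, rates read over 10 min; Ki derived from rate versus inhibitor concentration.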

c-KIT = target: T1, c-KIT (Homo sapiens, UniProt P10721); test: Inhibition of c-KIT, radiometric filter-binding assay; type: biochemical; settings: 700 μM ATP, 0.5 mg/mL pE4Y, room temperature
T1 construct: 0.02% BSA and 25 nM c-KIT
T1 sequence (P10721 26-976): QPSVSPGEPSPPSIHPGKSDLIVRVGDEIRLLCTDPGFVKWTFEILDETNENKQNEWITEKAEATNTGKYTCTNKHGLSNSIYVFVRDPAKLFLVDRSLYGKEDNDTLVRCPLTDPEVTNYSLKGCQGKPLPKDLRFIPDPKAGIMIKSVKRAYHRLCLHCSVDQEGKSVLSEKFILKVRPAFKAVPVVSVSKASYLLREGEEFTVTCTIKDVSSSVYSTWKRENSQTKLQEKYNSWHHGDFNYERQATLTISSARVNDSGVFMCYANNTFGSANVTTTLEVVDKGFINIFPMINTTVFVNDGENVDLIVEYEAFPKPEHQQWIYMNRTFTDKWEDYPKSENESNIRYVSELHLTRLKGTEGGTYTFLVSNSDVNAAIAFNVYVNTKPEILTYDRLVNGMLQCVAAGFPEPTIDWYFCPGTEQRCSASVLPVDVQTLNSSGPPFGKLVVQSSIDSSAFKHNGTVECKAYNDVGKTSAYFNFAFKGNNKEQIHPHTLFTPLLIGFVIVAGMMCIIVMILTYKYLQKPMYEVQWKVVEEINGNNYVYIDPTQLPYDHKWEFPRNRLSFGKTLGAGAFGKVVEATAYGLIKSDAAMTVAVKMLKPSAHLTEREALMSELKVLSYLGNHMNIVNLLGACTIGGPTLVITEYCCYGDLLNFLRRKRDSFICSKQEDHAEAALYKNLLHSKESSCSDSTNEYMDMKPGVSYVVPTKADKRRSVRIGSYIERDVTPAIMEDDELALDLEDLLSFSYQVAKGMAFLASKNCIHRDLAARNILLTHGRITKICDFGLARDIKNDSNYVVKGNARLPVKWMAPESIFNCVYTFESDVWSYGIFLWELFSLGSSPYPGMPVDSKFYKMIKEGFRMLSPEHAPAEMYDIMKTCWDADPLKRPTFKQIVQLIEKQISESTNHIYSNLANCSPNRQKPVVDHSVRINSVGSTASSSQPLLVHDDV
How it was run: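 Radiometric filter-binding: 25 nM c-KIT (enzyme in the Solution 2 mix) with poly(Glu,Tyr) 4:1 substrate at 0.5 mg/mL and [γ-^33P]ATP at 700 μM (both final), in HEPES pH 7.5/MgCl2/NaCl/DTT/BSA with 2.5% DMSO. Incubated 20 min at room temperature, stopped with TCA, and ^33P incorporation counted on filters. 12-point titration, final compound typically 0.01-5 μM; IC50 or Ki from curve fit.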

Sequence of c-Met (P08581 25-1390): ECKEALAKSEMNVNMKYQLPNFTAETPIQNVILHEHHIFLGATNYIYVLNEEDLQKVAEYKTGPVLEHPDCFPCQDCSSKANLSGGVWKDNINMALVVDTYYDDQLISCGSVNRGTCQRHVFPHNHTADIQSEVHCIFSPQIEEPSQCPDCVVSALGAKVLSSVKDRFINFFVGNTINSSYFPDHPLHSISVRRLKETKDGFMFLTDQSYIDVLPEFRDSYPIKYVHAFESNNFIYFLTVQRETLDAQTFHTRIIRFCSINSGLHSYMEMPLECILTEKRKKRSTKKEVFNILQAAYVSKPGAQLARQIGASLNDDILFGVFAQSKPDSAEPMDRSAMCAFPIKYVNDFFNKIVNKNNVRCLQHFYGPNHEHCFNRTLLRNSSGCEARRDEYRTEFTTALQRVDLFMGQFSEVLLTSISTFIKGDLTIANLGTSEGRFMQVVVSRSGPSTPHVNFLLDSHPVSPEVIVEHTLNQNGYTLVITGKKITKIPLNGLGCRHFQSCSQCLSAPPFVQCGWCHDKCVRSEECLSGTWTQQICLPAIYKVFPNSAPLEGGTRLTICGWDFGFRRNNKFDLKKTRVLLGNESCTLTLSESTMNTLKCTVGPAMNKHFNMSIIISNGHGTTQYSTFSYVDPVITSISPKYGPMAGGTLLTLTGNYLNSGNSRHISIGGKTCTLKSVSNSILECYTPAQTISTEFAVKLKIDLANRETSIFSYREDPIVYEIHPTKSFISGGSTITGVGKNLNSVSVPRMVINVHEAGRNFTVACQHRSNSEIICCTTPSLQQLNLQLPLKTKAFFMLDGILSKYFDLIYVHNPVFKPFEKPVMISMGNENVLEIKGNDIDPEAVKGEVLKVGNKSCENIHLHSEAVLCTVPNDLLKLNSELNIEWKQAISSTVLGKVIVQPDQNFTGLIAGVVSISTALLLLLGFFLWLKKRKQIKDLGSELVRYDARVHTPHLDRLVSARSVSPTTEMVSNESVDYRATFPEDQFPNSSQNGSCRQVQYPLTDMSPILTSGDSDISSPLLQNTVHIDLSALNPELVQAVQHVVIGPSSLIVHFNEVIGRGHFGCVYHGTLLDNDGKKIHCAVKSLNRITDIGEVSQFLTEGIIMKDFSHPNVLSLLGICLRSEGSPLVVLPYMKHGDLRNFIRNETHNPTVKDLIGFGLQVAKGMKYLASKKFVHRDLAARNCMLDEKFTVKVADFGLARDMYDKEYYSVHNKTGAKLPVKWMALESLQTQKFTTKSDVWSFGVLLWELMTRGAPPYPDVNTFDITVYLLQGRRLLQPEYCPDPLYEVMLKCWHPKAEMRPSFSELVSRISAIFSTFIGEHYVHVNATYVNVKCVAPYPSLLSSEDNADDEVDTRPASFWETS

Compound | Ki (c-Met) [nM] | Ki (c-KIT) [nM]
CC(=O)Nc1cccc(-c2cnc3[nH]cc(-c4oncc4-c4cccc(F)c4F)c3c2)c1 [Compound 65, N-(3-{3-[4-(2,3-Difluoro-phenyl)-isoxazol-5-yl]-1H-pyrrolo[2,3-b]pyridin-5-yl}-phenyl)-acetamide] | < 200 | < 200
CC(=O)Nc1ccc(-c2cnc3[nH]cc(-c4oncc4-c4cccc(F)c4F)c3c2)cc1 [Compound 95, N-(4-{3-[4-(2,3-Difluoro-phenyl)-isoxazol-5-yl]-1H-pyrrolo[2,3-b]pyridin-5-yl}-phenyl)-acetamide] | < 200 | < 200
CN(C)Cc1ccc(-c2cnc3[nH]cc(-c4oncc4-c4cccc(F)c4F)c3c2)nc1 [Compound 84, (6-{3-[4-(2,3-Difluoro-phenyl)-isoxazol-5-yl]-1H-pyrrolo[2,3-b]pyridin-5-yl}-pyridin-3-ylmethyl)-dimethyl-amine] | < 200 | < 200
Fc1cccc(-n2cnnc2-c2c[nH]c3ncc(-c4cccnc4)cc23)c1F [Compound 113, 3-[4-(2,3-Difluoro-phenyl)-4H-[1,2,4]triazol-3-yl]-5-pyridin-3-yl-1H-pyrrolo[2,3-b]pyridine] | < 200 | 200 to 1000
CN(C)CCNc1ccc(-c2cnc3[nH]cc(-c4nncn4-c4cccc(F)c4F)c3c2)cn1 [Compound 119, N′-(5-{3-[4-(2,3-Difluoro-phenyl)-4H-[1,2,4]triazol-3-yl]-1H-pyrrolo[2,3-b]pyridin-5-yl}-pyridin-2-yl)-N,N-dimethyl-ethane-1,2-diamine] | < 200 | 200 to 1000
COc1ccnc(-c2cnc3[nH]cc(-c4oncc4-c4cccc(F)c4F)c3c2)c1 [Compound 78, 3-[4-(2,3-Difluoro-phenyl)-isoxazol-5-yl]-5-(4-methoxy-pyridin-2-yl)-1H-pyrrolo[2,3-b]pyridine] | < 200 | < 200
Fc1cccc(-c2cnoc2-c2c[nH]c3ncc(-c4ccncc4)cc23)c1F [Compound 57, 3-[4-(2,3-Difluoro-phenyl)-isoxazol-5-yl]-5-pyridin-4-yl-1H-pyrrolo[2,3-b]pyridine] | < 200 | < 200
OC1CCN(c2ccc(-c3cnc4[nH]cc(-c5nncn5-c5cccc(F)c5F)c4c3)cn2)CC1 [Compound 116, 5′-{3-[4-(2,3-Difluoro-phenyl)-4H-[1,2,4]triazol-3-yl]-1H-pyrrolo[2,3-b]pyridin-5-yl}-3,4,5,6-tetrahydro-2H-[1,2′]bi-pyridinyl-4-ol] | < 200 | 200 to 1000
Oc1cccc(-c2cnc3[nH]cc(-c4oncc4-c4cccc(F)c4F)c3c2)c1 [Compound 87, 3-{3-[4-(2,3-Difluoro-phenyl)-isoxazol-5-yl]-1H-pyrrolo [2,3-b]pyridin-5-yl}-phenol] | < 200 | < 200
CN(C)C1CC=C(c2cnc3[nH]cc(-c4oncc4-c4cccc(F)c4F)c3c2)CC1 (centres unmarked) [Compound 138, (4-{3-[4-(2,3-Difluoro-phenyl)-isoxazol-5-yl]-1H-pyrrolo[2,3-b]pyridin-5-yl}-cyclohex-3-enyl)-dimethyl-amine] | < 200 | < 200
Fc1cccc(-c2cnoc2-c2c[nH]c3ncc(C4CCNCC4)cc23)c1F [Compound 62, 3-[4-(2,3-Difluoro-phenyl)-isoxazol-5-yl]-5-piperidin-4-yl-1H-pyrrolo[2,3-b]pyridine] | < 200 | 200 to 1000
Fc1cccc(-c2cnoc2-c2c[nH]c3ncccc23)c1F [Compound 1, 3-[4-(2,3-Difluoro-phenyl)-isoxazol-5-yl]-1H-pyrrolo[2,3-b]pyridine] | < 200 | < 200
Cc1noc(-c2c[nH]c3ncc(-c4ccc(N5CCN(C)CC5)cc4)cc23)c1-c1cccc(F)c1F [Compound 135, 3-[4-(2,3-Difluoro-phenyl)-3-methyl-isoxazol-5-yl]-5-[4-(4-methyl-piperazin-1-yl)-phenyl]-1H-pyrrolo[2,3-b]pyridine] | < 200 | < 200
COC(=O)c1cnc2[nH]cc(-c3oncc3-c3cccc(F)c3F)c2c1 [Compound 105, 3-[4-(2,3-Difluoro-phenyl)-isoxazol-5-yl]-1H-pyrrolo[2,3-b]pyridine-5-carboxylic acid methyl ester] | < 200 | < 200
Fc1cccc(-c2cnoc2-c2c[nH]c3ncc(-c4ccc(CN5CCCC5)cc4)cc23)c1F [Compound 93, 3-[4-(2,3-Difluoro-phenyl)-isoxazol-5-yl]-5-(4-pyrrolidin-1-ylmethyl-phenyl)-1H-pyrrolo[2,3-b]pyridine] | < 200 | < 200
Fc1cccc(-c2cnoc2-c2c[nH]c3ncc(-c4cncnc4)cc23)c1F [Compound 85, 3-[4-(2,3-Difluoro-phenyl)-isoxazol-5-yl]-5-pyrimidin-5-yl-1H-pyrrolo[2,3-b]pyridine] | < 200 | < 200
Fc1cccc(-n2cnnc2-c2c[nH]c3ncc(-c4ccc(N5CCCC5)nc4)cc23)c1F [Compound 118, 3-[4-(2,3-Difluoro-phenyl)-4H-[1,2,4]triazol-3-yl]-5-(6-pyrrolidin-1-yl-pyridin-3-yl)-1H-pyrrolo[2,3-b]pyridine] | < 200 | 200 to 1000

More lines, now with the values ahead:

Ki (c-Met) [nM] | Ki (c-KIT) [nM] | Compound
< 200 | < 200 | CN(C)CC#Cc1cnc2[nH]cc(-c3oncc3-c3cccc(F)c3F)c2c1 [Compound 53, (3-{3-[4-(2,3-Difluoro-phenyl)-isoxazol-5-yl]-1H-pyrrolo[2,3-b]pyridin-5-yl}-prop-2-ynyl)-dimethyl-amine]
< 200 | < 200 | Oc1cnc2[nH]cc(-c3oncc3-c3cccc(F)c3F)c2c1 [Compound 43, 3-[4-(2,3-Difluoro-phenyl)-isoxazol-5-yl]-1H-pyrrolo[2,3-b]pyridin-5-ol]
< 200 | < 200 | CN(C)c1ccc(-c2cnc3[nH]cc(-c4oncc4-c4cccc(F)c4F)c3c2)cc1 [Compound 88, (4-{3-[4-(2,3-Difluoro-phenyl)-isoxazol-5-yl]-1H-pyrrolo[2,3-b]pyridin-5-yl}-phenyl)-dimethyl-amine]
< 200 | 200 to 1000 | CN1CCC(c2cnc3[nH]cc(-c4oncc4-c4cccc(F)c4F)c3c2)CC1 [Compound 60, 3-[4-(2,3-Difluoro-phenyl)-isoxazol-5-yl]-5-(1-methyl-piperidin-4-yl)-1H-pyrrolo[2,3-b]pyridine]
< 200 | < 200 | CN1CCN(c2ccc(-c3cnc4[nH]cc(-c5oncc5-c5cccc(F)c5F)c4c3)cn2)CC1 [Compound 71, 3-[4-(2,3-Difluoro-phenyl)-isoxazol-5-yl]-5-[6-(4-methyl-piperazin-1-yl)-pyridin-3-yl]-1H-pyrrolo[2,3-b]pyridine]
< 200 | 200 to 1000 | CN1CCCN(c2ccc(-c3cnc4[nH]cc(-c5nncn5-c5cccc(F)c5F)c4c3)cn2)CC1 [Compound 117, 3-[4-(2,3-Difluoro-phenyl)-4H-[1,2,4]triazol-3-yl]-5-[6-(4-methyl-[1,4]diazepan-1-yl)-pyridin-3-yl]-1H-pyrrolo [2,3-b]-pyridine]
< 200 | < 200 | COc1cnc2[nH]cc(-c3oncc3-c3cccc(Cl)c3Cl)c2c1 [Compound 49, 3-[4-(2,3-Dichloro-phenyl)-isoxazol-5-yl]-5-methoxy-1H-pyrrolo[2,3-b]pyridine]
< 200 | < 200 | CN(C)c1ccc(-c2cnc3[nH]cc(-c4nncn4-c4cccc(F)c4F)c3c2)cc1 [Compound 106, (4-{3-[4-(2,3-Difluoro-phenyl)-4H-[1,2,4]triazol-3-yl]-1H-pyrrolo[2,3-b]pyridin-5-yl}-phenyl)-dimethyl-amine]
< 200 | < 200 | CN1CCN(Cc2ccc(-c3cnc4[nH]cc(-c5oncc5-c5cccc(F)c5F)c4c3)cc2)CC1 [Compound 94, 3-[4-(2,3-Difluoro-phenyl)-isoxazol-5-yl]-5-[4-(4-methyl-piperazin-1-ylmethyl)-phenyl]-1H-pyrrolo[2,3-b]pyridine]
< 200 | < 200 | Fc1cccc(-c2cnoc2-c2c[nH]c3ncc(C4=CCC(N5CCOCC5)CC4)cc23)c1F (centres unmarked) [Compound 139, 3-[4-(2,3-Difluoro-phenyl)-isoxazol-5-yl]-5-(4-morpholin-4-yl-cyclohex-1-enyl)-1H-pyrrolo[2,3-b]pyridine]
< 200 | < 200 | Clc1cccc(-c2cnoc2-c2c[nH]c3ncc(-c4cccnc4)cc23)c1Cl [Compound 99, 3-[4-(2,3-Dichloro-phenyl)-isoxazol-5-yl]-5-pyridin-3-yl-1H-pyrrolo[2,3-b]pyridine]
